In brackets after ≈: the same amount, converted by molar mass.
How the values were obtained:
Type in all cases: functional
Pseudomonas aeruginosa [1] = assay: Antimicrobial activity against Pseudomonas aeruginosa 1566-05
Pseudomonas aeruginosa [2] = assay: Antimicrobial activity against Pseudomonas aeruginosa 1955-00
Pseudomonas aeruginosa [3] = assay: Antimicrobial activity against Pseudomonas aeruginosa 1509-08
Pseudomonas aeruginosa [4] = assay: Antimicrobial activity against Pseudomonas aeruginosa 1514-08
Pseudomonas aeruginosa [5] = assay: Antimicrobial activity against Pseudomonas aeruginosa 1764-00
Pseudomonas aeruginosa [6] = assay: Antimicrobial activity against Pseudomonas aeruginosa 1953-00
Pseudomonas aeruginosa [7] = assay: Antimicrobial activity against Pseudomonas aeruginosa 1515-08
Pseudomonas aeruginosa [8] = assay: Antimicrobial activity against Pseudomonas aeruginosa 1956-00
Pseudomonas aeruginosa [9] = assay: Antimicrobial activity against Pseudomonas aeruginosa 1954-00
Pseudomonas aeruginosa [10] = assay: Antimicrobial activity against Pseudomonas aeruginosa 1521-08
Pseudomonas aeruginosa [11] = assay: Antimicrobial activity against Pseudomonas aeruginosa 1565-05
Pseudomonas aeruginosa [12] = assay: Antimicrobial activity against Pseudomonas aeruginosa PA-4990
Pseudomonas aeruginosa [13] = assay: Antimicrobial activity against Pseudomonas aeruginosa 1562-05
Pseudomonas aeruginosa [14] = assay: Antimicrobial activity against Pseudomonas aeruginosa PA-4995
Pseudomonas aeruginosa [15] = assay: Antimicrobial activity against Pseudomonas aeruginosa 1512-08
Pseudomonas aeruginosa [16] = assay: Antimicrobial activity against Pseudomonas aeruginosa 1619-08
Pseudomonas aeruginosa [17] = assay: Antimicrobial activity against Pseudomonas aeruginosa 1753-00
Pseudomonas aeruginosa [18] = assay: Antimicrobial activity against Pseudomonas aeruginosa 1766-00
Pseudomonas aeruginosa [19] = assay: Antimicrobial activity against Pseudomonas aeruginosa PA-4997
Pseudomonas aeruginosa [20] = assay: Antimicrobial activity against Pseudomonas aeruginosa 1765-00
Pseudomonas aeruginosa [21] = assay: Antimicrobial activity against Pseudomonas aeruginosa 1564-05
Pseudomonas aeruginosa [22] = assay: Antimicrobial activity against Pseudomonas aeruginosa PA-4624
Pseudomonas aeruginosa [23] = assay: Antimicrobial activity against Pseudomonas aeruginosa 1957-00
Pseudomonas aeruginosa [24] = assay: Antimicrobial activity against Pseudomonas aeruginosa 1611-09
Pseudomonas aeruginosa [25] = assay: Antimicrobial activity against Pseudomonas aeruginosa PA-4991
Pseudomonas aeruginosa [26] = assay: Antimicrobial activity against Pseudomonas aeruginosa 1513-08
Pseudomonas aeruginosa [27] = assay: Antimicrobial activity against Pseudomonas aeruginosa 1761-00
Pseudomonas aeruginosa [28] = assay: Antimicrobial activity against Pseudomonas aeruginosa 1510-08
Pseudomonas aeruginosa [29] = assay: Antimicrobial activity against Pseudomonas aeruginosa PA-1757
Pseudomonas aeruginosa [30] = assay: Antimicrobial activity against Pseudomonas aeruginosa 1612-09
Pseudomonas aeruginosa [31] = assay: Antimicrobial activity against Pseudomonas aeruginosa 1752-00
Pseudomonas aeruginosa [32] = assay: Antimicrobial activity against Pseudomonas aeruginosa 1613-09
Pseudomonas aeruginosa [33] = assay: Antimicrobial activity against Pseudomonas aeruginosa 1568-05
Pseudomonas aeruginosa [34] = assay: Antimicrobial activity against Pseudomonas aeruginosa 1567-05
Pseudomonas aeruginosa [35] = assay: Antimicrobial activity against Pseudomonas aeruginosa 1615-09
Pseudomonas aeruginosa [36] = assay: Antimicrobial activity against Pseudomonas aeruginosa 1563-00
Pseudomonas aeruginosa [37] = assay: Antimicrobial activity against Pseudomonas aeruginosa PA-75
Pseudomonas aeruginosa [38] = assay: Antimicrobial activity against Pseudomonas aeruginosa 1523-08
Pseudomonas aeruginosa [39] = assay: Antimicrobial activity against Pseudomonas aeruginosa 1561-05
Pseudomonas aeruginosa [40] = assay: Antimicrobial activity against Pseudomonas aeruginosa 1614-09
Pseudomonas aeruginosa [41] = assay: Antimicrobial activity against Pseudomonas aeruginosa 1526-08
Pseudomonas aeruginosa [42] = assay: Antimicrobial activity against Pseudomonas aeruginosa 1760-00
Pseudomonas aeruginosa [43] = assay: Antimicrobial activity against Pseudomonas aeruginosa 1527-08
Pseudomonas aeruginosa [44] = assay: Antimicrobial activity against Pseudomonas aeruginosa 1952-00
Pseudomonas aeruginosa [45] = assay: Antimicrobial activity against Pseudomonas aeruginosa 1570-05
Pseudomonas aeruginosa [46] = assay: Antimicrobial activity against Pseudomonas aeruginosa 1767-00
Pseudomonas aeruginosa [47] = assay: Antimicrobial activity against Pseudomonas aeruginosa 1951-00
Pseudomonas aeruginosa [48] = assay: Antimicrobial activity against Pseudomonas aeruginosa PA-4999
Pseudomonas aeruginosa [49] = assay: Antimicrobial activity against Pseudomonas aeruginosa PA-4993
Pseudomonas aeruginosa [50] = assay: Antimicrobial activity against Pseudomonas aeruginosa 1768-00
Pseudomonas aeruginosa [51] = assay: Antimicrobial activity against Pseudomonas aeruginosa 1569-05

Q: Which results are given for `C[C@@H](O)[C@H]1C(=O)N2C(C(=O)O)=C(S[C@@H]3CN[C@H](C(=O)N(C)C)C3)[C@H](C)[C@H]12` [MEROPENEM]?
A: MIC90 (Pseudomonas aeruginosa [1]): 0.5 µg/mL (≈ 1.3 µM); MIC90 (Pseudomonas aeruginosa [2]): 1 µg/mL (≈ 2.61 µM); MIC90 (Pseudomonas aeruginosa [3]): > 64 µg/mL; MIC90 (Pseudomonas aeruginosa [4]): > 64 µg/mL; MIC90 (Pseudomonas aeruginosa [5]): 2 µg/mL (≈ 5.22 µM); MIC90 (Pseudomonas aeruginosa [6]): 2 µg/mL (≈ 5.22 µM); MIC90 (Pseudomonas aeruginosa [7]): 32 µg/mL (≈ 83.4 µM); MIC90 (Pseudomonas aeruginosa [8]): 0.5 µg/mL (≈ 1.3 µM); MIC90 (Pseudomonas aeruginosa [9]): 0.25 µg/mL (≈ 0.652 µM); MIC90 (Pseudomonas aeruginosa [10]): > 64 µg/mL; MIC90 (Pseudomonas aeruginosa [11]): 0.5 µg/mL (≈ 1.3 µM); MIC90 (Pseudomonas aeruginosa [12]): 32 µg/mL (≈ 83.4 µM); MIC90 (Pseudomonas aeruginosa [13]): 4 µg/mL (≈ 10.4 µM); MIC90 (Pseudomonas aeruginosa [14]): 16 µg/mL (≈ 41.7 µM); MIC90 (Pseudomonas aeruginosa [15]): > 64 µg/mL; MIC90 (Pseudomonas aeruginosa [16]): 4 µg/mL (≈ 10.4 µM); MIC90 (Pseudomonas aeruginosa [17]): 0.125 µg/mL (≈ 0.326 µM); MIC90 (Pseudomonas aeruginosa [18]): 2 µg/mL (≈ 5.22 µM); MIC90 (Pseudomonas aeruginosa [19]): 64 µg/mL (≈ 167 µM); MIC90 (Pseudomonas aeruginosa [20]): 2 µg/mL (≈ 5.22 µM); MIC90 (Pseudomonas aeruginosa [21]): 2 µg/mL (≈ 5.22 µM); MIC90 (Pseudomonas aeruginosa [22]): 0.25 µg/mL (≈ 0.652 µM); MIC90 (Pseudomonas aeruginosa [23]): 0.125 µg/mL (≈ 0.326 µM); MIC90 (Pseudomonas aeruginosa [24]): 4 µg/mL (≈ 10.4 µM); MIC90 (Pseudomonas aeruginosa [25]): 8 µg/mL (≈ 20.9 µM); MIC90 (Pseudomonas aeruginosa [26]): 32 µg/mL (≈ 83.4 µM); MIC90 (Pseudomonas aeruginosa [27]): 2 µg/mL (≈ 5.22 µM); MIC90 (Pseudomonas aeruginosa [28]): > 64 µg/mL; MIC90 (Pseudomonas aeruginosa [29]): 4 µg/mL (≈ 10.4 µM); MIC90 (Pseudomonas aeruginosa [30]): 16 µg/mL (≈ 41.7 µM); MIC90 (Pseudomonas aeruginosa [31]): 0.125 µg/mL (≈ 0.326 µM); MIC90 (Pseudomonas aeruginosa [32]): 0.25 µg/mL (≈ 0.652 µM); MIC90 (Pseudomonas aeruginosa [33]): 0.5 µg/mL (≈ 1.3 µM); MIC90 (Pseudomonas aeruginosa [34]): 0.5 µg/mL (≈ 1.3 µM); MIC90 (Pseudomonas aeruginosa [35]): 2 µg/mL (≈ 5.22 µM); MIC90 (Pseudomonas aeruginosa [36]): 2 µg/mL (≈ 5.22 µM); MIC90 (Pseudomonas aeruginosa [37]): 0.5 µg/mL (≈ 1.3 µM); MIC90 (Pseudomonas aeruginosa [38]): 64 µg/mL (≈ 167 µM); MIC90 (Pseudomonas aeruginosa [39]): 2 µg/mL (≈ 5.22 µM); MIC90 (Pseudomonas aeruginosa [40]): 4 µg/mL (≈ 10.4 µM); MIC90 (Pseudomonas aeruginosa [41]): > 64 µg/mL; MIC90 (Pseudomonas aeruginosa [42]): 4 µg/mL (≈ 10.4 µM); MIC90 (Pseudomonas aeruginosa [43]): 8 µg/mL (≈ 20.9 µM); MIC90 (Pseudomonas aeruginosa [44]): 2 µg/mL (≈ 5.22 µM); MIC90 (Pseudomonas aeruginosa [45]): 0.25 µg/mL (≈ 0.652 µM); MIC90 (Pseudomonas aeruginosa [46]): 0.5 µg/mL (≈ 1.3 µM); MIC90 (Pseudomonas aeruginosa [47]): 0.06 µg/mL (≈ 0.156 µM); MIC90 (Pseudomonas aeruginosa [48]): 8 µg/mL (≈ 20.9 µM); MIC90 (Pseudomonas aeruginosa [49]): > 64 µg/mL; MIC90 (Pseudomonas aeruginosa [50]): 0.5 µg/mL (≈ 1.3 µM); MIC90 (Pseudomonas aeruginosa [51]): 0.25 µg/mL (≈ 0.652 µM)

— ChEMBL document CHEMBL3217532, “New analyses of MIC90 data to aid antibacterial drug discovery” (2011)
